Experiments:
[1] = biological target: T1, hPTHR1 (Homo sapiens, UniProt Q03431); experiment: cAMP production assay in COS-7 cells expressing hPTHR1; format: cell-based; details: COS-7 cells expressing hPTHR1, 20 min
T1 construct: similar to that of cells expressing full-length hPTHR1; expressed in transfected cells; host or cells: COS-7 (transient, FuGENE HD)
T1 sequence (Q03431 27-593 E93Y/D94P/K95Y/E96D/A97V/T99D/G100Y/S101A): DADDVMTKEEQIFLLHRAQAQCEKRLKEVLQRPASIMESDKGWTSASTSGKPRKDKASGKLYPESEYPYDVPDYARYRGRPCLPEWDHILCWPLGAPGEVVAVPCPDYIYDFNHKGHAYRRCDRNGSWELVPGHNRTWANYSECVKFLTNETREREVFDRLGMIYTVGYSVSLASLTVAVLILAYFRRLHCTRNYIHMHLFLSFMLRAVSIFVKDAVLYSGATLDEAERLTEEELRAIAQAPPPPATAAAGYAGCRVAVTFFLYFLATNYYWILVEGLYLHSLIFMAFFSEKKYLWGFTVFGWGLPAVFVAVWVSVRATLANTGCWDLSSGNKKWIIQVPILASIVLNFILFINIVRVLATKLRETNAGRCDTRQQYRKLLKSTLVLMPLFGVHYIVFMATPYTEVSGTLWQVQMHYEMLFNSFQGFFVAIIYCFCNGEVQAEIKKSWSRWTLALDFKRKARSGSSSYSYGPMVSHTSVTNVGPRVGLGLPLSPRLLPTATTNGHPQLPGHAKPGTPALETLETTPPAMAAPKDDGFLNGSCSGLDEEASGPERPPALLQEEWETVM
Experimental: COS-7 cells (ATCC) were seeded into a 96-well flat-bottomed plate (1.4 × 10^4 cells per 100 μl per well) and incubated overnight. The next day, the COS-7 cells were transfected by adding 10 μl of a mixture of hPTHR1, hPTHR2 or mutant hPTHR1 plasmid, rat PTHR1 or rat PTHR2 plasmid, or empty vector (0.1 μg per well), FuGENE HD Transfection Reagent (0.4 μl per well, Promega), and Opti-MEM I Reduced Serum Medium (10 μl per well, Life Technologies) to each well. […] The plate was placed in a 37 °C constant-temperature water bath for 20 min to allow the reaction to proceed. After incubation, the liquid in the wells was discarded, the wells were washed with the assay medium (100 μl per well), and the plate was frozen on dry ice. Next, 40 μl of 50 mmol l^−1 HCl was added to each well, and the plate was stored in a freezer set at ≤−20 °C. The cAMP concentrations were measured by using a cAMP EIA kit (GE Healthcare). EC50 values were determined from three independent experiments in duplicate by a non-linear regression Emax model (JMP ver.9.0.2, SAS Institute). The geometric mean of the EC50 values obtained in three experiments in duplicate was calculated using Microsoft Office Excel 2007. […]

[2] = test system: normal dogs; experiment: Preclinical toxicology studies; format: in vivo, dog
[3] = biological target: T1, hPTHR1; experiment: Receptor binding assay, competition with 125I-[Aib1,3,M]–PTH(1–15) on COS-7 membranes; details: at 100 μmol l^−1
Experimental: COS-7 cells (ATCC) were seeded into 10-cm dishes (1.7 × 10^6 cells per dish) and incubated overnight. The next day, the COS-7 cells were transfected by adding 500 μl of a mixture of hPTHR1 plasmid (10 μg per dish), FuGENE HD Transfection Reagent (40 μl per dish, Promega) and Opti-MEM I Reduced Serum Medium (450 μl per well, Life Technologies) to each dish. On the third day after the cells were seeded into the dishes, the culture medium in the dishes was discarded, each dish was washed with 5 ml of Buffer A (10 mmol l^−1 Tris-HCl, pH 7.4/4 mmol l^−1 EDTA) without protease inhibitor cocktail (PI; Nacalai Tesque, Inc.), and then 750 μl of Buffer A (10 mmol l^−1 Tris-HCl, pH 7.4/4 mmol l^−1 EDTA/1 × PI) was added to each dish. […] The protein concentration was determined using Protein Assay Dye Reagent Concentrate (Bio-Rad Laboratories, Inc). […]
The binding of hPTH(1–34) and PCO371 free base to hPTHR1 was evaluated by competition assay using ^125I-[Aib^1,3,M]PTH(1–15) as the competing entity. […] The dried filter was recovered, and the ^125I radioactivity was measured using a gamma counter. […] Total ^125I count rates (cpm) measured by the gamma counter were used as the primary data. Binding to hPTHR1 was evaluated by calculating the per cent specific binding from the following formula using Microsoft Office Excel 2007.
Percentage specific binding was calculated by the following formula: equation (1) […]

Cc1cc(N2C(=O)NC(=O)C2(C)C)cc(C)c1CCS(=O)(=O)N1CCC2(CC1)N=C(c1ccc(OC(F)(F)F)cc1)NC2=O [PCO371, 1-{3,5-dimethyl-4-[2-({4-oxo-2-[4-(trifluoromethoxy)phenyl]-1,3,8-triazaspiro[4.5]dec-1-en-8-yl}sulfonyl)ethyl]phenyl}-5,5-dimethylimidazolidine-2,4-dione]
EC50 [1]: 2400 nM
serious side effects ([2]; one-month toxicology studies in normal dogs): not any serious side effects
serious side effects ([2]; preclinical toxicology studies): no serious side effects
inhibition of the binding of 125I-[Aib1,3,M]–PTH(1–15) [3]: almost completely

Source: publication PMC5120204, “Identification of an orally active small-molecule PTHR1 agonist for the treatment of hypoparathyroidism” (Nature Communications, 2016)
